The values below come from patent publication US11492335B2, “Aryl or heteroaryl triazolone derivatives or salts thereof, or pharmaceutical compositions comprising the same” (YUHAN CORPORATION, priority 2018, dated 2022).

Structures can show the parent of a compound that is named as a salt. Some results are limits rather than exact numbers.

What all share (assay type): biochemical
Assay [1] concerns the target T1, recombinant human MAO-B (monoamine oxidase-B) (Homo sapiens, UniProt P27338).
T1 construct: purchased Sigma-Aldrich
T1 sequence (P27338 1-520): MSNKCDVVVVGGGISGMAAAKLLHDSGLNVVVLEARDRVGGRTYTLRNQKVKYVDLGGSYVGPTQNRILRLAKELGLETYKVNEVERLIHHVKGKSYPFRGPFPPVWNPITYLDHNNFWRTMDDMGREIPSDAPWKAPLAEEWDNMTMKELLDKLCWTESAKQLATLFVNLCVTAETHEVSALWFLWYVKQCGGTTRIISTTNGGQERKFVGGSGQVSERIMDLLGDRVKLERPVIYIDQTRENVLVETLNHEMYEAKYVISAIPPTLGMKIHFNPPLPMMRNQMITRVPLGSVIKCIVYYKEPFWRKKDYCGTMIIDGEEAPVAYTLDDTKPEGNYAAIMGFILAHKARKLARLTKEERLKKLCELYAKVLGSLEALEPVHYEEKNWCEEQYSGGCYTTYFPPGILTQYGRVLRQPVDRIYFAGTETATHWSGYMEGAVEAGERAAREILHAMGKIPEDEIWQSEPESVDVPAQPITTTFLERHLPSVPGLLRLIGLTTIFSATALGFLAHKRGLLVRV
Briefly: Activity on recombinant human MAO-B, Amplex Red method, 1 mM benzylamine substrate. The following applies: 1 mM benzylamine, read-out: Inhibitory Activity (IC50, nM) MAO-B. Summed up: (§1)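 First, serially diluted compounds were incubated with recombinant enzyme in 50 mM sodium phosphate, pH 7.4, for 30 min at 37° C. Next, Amplex Red (200 uM), HRP (1 U/mL) and tyramine (0.5 mM, MAO-A) or benzylamine (1 mM, MAO-B) were added. Then fluorescence was monitored over 1-2 h and IC50 fitted.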

Assay [2] has as its target T2, recombinant human DAO (diamine oxidase) (Homo sapiens, UniProt P19801).
T2 construct: purchased R&D systems
T2 sequence (P19801 20-751): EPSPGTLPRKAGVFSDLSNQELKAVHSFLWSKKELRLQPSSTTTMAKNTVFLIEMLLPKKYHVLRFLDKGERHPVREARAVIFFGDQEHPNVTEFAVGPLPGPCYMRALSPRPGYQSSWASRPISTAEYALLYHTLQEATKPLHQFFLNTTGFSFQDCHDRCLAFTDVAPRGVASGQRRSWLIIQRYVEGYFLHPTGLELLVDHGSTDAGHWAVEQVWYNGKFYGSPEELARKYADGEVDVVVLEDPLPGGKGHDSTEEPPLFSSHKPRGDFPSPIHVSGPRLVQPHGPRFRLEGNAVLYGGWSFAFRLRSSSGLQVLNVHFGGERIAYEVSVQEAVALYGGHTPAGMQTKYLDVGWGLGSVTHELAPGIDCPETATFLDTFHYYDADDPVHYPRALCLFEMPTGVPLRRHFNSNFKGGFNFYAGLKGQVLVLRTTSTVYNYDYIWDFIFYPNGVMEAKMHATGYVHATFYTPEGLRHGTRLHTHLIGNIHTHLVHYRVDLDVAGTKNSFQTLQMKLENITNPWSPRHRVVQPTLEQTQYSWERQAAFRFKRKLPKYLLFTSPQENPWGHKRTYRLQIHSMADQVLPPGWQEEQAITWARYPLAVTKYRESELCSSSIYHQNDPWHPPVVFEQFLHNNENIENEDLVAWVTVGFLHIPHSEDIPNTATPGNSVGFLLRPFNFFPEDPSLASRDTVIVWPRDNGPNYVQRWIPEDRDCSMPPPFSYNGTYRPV
Briefly: Activity on recombinant human DAO, Amplex Red method, 1 mM putrescine substrate. The settings on record: recombinant human DAO, 1 mM putrescine, * = between 10 and 100 nM, ** = between 300 and 1000 nM; for IC50: read-out: Inhibitory Activity (IC50, nM) DAO. Summed up: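 Inhibition of recombinant human DAO (diamine oxidase, R&D systems) was assessed with the Amplex Red Hydrogen Peroxide Assay Kit. Hydrogen peroxide produced from 1 mM putrescine was detected through an HRP-coupled reaction that converts Amplex Red into fluorescent resorufin, read at 544 nm excitation and 590 nm emission. IC50 values came from four-parameter logistic fits in GraphPad Prism.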

The next assay addresses T3, recombinant human VAP-1 (Homo sapiens, UniProt Q16853).
T3 construct: purchased R&D systems
T3 sequence (Q16853 1-763): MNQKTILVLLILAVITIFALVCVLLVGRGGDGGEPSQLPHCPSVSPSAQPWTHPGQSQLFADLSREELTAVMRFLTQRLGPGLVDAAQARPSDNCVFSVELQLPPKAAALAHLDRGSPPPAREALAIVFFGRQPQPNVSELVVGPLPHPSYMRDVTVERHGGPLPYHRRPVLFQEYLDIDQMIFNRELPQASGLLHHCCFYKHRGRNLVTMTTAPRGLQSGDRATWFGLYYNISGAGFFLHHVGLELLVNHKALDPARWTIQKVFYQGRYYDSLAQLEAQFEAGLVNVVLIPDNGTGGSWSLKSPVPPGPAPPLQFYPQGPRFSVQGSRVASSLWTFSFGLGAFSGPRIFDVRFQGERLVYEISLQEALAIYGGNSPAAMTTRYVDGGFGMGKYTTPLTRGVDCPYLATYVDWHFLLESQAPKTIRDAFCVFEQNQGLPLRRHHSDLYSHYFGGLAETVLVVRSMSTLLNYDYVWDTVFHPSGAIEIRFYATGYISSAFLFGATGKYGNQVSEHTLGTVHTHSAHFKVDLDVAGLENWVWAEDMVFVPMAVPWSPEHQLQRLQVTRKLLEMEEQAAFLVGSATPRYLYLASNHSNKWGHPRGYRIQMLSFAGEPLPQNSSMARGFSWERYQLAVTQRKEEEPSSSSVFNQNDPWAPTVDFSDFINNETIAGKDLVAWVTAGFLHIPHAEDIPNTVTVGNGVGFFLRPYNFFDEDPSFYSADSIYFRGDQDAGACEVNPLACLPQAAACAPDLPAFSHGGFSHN
As to the kind of experiment: Activity on recombinant human VAP-1, Amplex Red HRP-coupled hydrogen peroxide assay, benzylamine substrate. The following applies: recombinant human VAP-1, benzylamine substrate, 30 min preincubation at 37° C.; read-out: Inhibitory Activity (IC50, nM) human VAP-1. An outline of the steps: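 H2O2 generation from 1 mM benzylamine was coupled via 1 U/mL HRP to 200 uM Amplex Red; inhibitors, serially diluted 1:3 over 8 points with under 1% final DMSO, had been preincubated 30 min at 37 °C. IC50 from percentage drop in rate.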

Assay [3] concerns the target T4, recombinant human MAO-A (monoamine oxidase-A) (Homo sapiens, UniProt P21397).
T4 construct: purchased Sigma-Aldrich
T4 sequence (P21397 1-527): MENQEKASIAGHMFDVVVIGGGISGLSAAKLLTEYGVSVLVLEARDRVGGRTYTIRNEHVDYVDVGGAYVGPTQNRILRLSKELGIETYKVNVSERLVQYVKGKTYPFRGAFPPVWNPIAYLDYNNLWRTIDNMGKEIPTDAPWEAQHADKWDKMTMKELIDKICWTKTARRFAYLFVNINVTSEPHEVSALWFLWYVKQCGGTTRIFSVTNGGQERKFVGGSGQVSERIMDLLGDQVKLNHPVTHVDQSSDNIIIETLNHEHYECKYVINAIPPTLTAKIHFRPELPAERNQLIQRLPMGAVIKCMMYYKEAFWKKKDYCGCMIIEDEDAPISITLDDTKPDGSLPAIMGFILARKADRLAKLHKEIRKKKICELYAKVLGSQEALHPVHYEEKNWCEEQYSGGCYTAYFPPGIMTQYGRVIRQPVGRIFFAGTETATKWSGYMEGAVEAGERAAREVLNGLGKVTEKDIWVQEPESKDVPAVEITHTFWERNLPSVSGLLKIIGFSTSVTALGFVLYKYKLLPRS
Briefly: Activity on recombinant human MAO-A, Amplex Red method, 0.5 mM tyramine substrate. The settings on record: 0.5 mM tyramine, read-out: Inhibitory Activity (IC50, nM) MAO-A. An outline of the steps: as §1

For the compound `Cc1cc(-c2cccc(-n3cnn(C/C(=C/F)CN)c3=O)c2)cc2c1NC(=O)CC2` [Example 102, 6-(3-{1-[(2E)-2-(aminomethyl)-3-fluoroprop-2-en-1-yl]-5-oxo-1,5-dihydro-4H-1,2,4-triazol-4-yl}phenyl)-8-methyl-3,4-dihydroquinolin-2(1H)-one hydrochloride], the half-maximal inhibitory concentration (IC50) in assay [1] is above 10000 nM; in assay [2] it was 28 nM; at recombinant human VAP-1, 0.2 nM; in assay [3], above 100000 nM.
The matching figures for `NC/C(=C\F)Cn1ncn(-c2cccc(-c3ccc4c(c3)NC(=O)CO4)c2)c1=O` [Example 103, 6-(3-{1-[(2E)-2-(aminomethyl)-3-fluoroprop-2-en-1-yl]-5-oxo-1,5-dihydro-4H-1,2,4-triazol-4-yl}phenyl)-2H-1,4-benzoxazin-3(4H)-one hydrochloride]: 1200 nM, 2.5 nM, 0.6 nM and 26500 nM.
For the compound `Cc1ccc(-c2cccc(-n3cnn(C/C(=C/F)CN)c3=O)c2)c2cccnc12` [Example 105, 2-[(2E)-2-(aminomethyl)-3-fluoroprop-2-en-1-yl]-4-[3-(8-methylquinolin-5-yl)phenyl]-2,4-dihydro-3H-1,2,4-triazol-3-one hydrochloride], the IC50 in assay [1] was found to be 9640 nM; in assay [2] it was 180 nM; on recombinant human VAP-1, 0.83 nM; in assay [3] it was 65200 nM.
The matching figures for `Cc1c(-c2ccc(S(C)(=O)=O)cc2)cccc1-n1cnn(C/C(=C/F)CN)c1=O` [Example 106, 2-[(2E)-2-(aminomethyl)-3-fluoroprop-2-en-1-yl]-4-[2-methyl-4′-(methylsulfonyl)biphenyl-3-yl]-2,4-dihydro-3H-1,2,4-triazol-3-one]: above 10000 nM, 310 nM, 4.7 nM and above 100000 nM.
Turning to `CC(=O)Nc1ccc(-c2cccc(-n3cnn(C/C(=C/F)CN)c3=O)c2C)cc1` [Example 107, N-(3′-{1-[(2E)-2-(aminomethyl)-3-fluoroprop-2-en-1-yl]-5-oxo-1,5-dihydro-4H-1,2,4-triazol-4-yl}-2′-methylbiphenyl-4-yl)acetamide], the IC50 was above 10000 nM in assay [1], 2.8 nM at recombinant human VAP-1 and above 100000 nM in assay [3]. In assay [2], the “Inhibitory Activity (IC50, nM) DAO” value is listed as “no inhibitory”.
For the compound `Cc1c(-c2ccc(-c3ccon3)cc2)cccc1-n1cnn(C/C(=C/F)CN)c1=O` [Example 108, 2-[(2E)-2-(aminomethyl)-3-fluoroprop-2-en-1-yl]-4-[2-methyl-4′-(1,2-oxazol-3-yl)biphenyl-3-yl]-2,4-dihydro-3H-1,2,4-triazol-3-one], the IC50 in assay [1] is above 10000 nM; in assay [2], 3500 nM; on recombinant human VAP-1, 2.2 nM; in assay [3], above 100000 nM.
With `Cc1c(-c2ccc3sc(N)nc3c2)cccc1-n1cnn(C/C(=C/F)CN)c1=O` [Example 114, 4-[3-(2-amino-1,3-benzothiazol-5-yl)-2-methylphenyl]-2-[(2E)-2-(aminomethyl)-3-fluoroprop-2-en-1-yl]-2,4-dihydro-3H-1,2,4-triazol-3-one], the IC50 is above 10000 nM in assay [1], 3.1 nM at recombinant human VAP-1 and above 100000 nM in assay [3]. Besides, the “Inhibitory Activity (IC50, nM) DAO” value in assay [2] is “no inhibitory”.
Regarding `Cc1cc(-n2cnn(C/C(=C/F)CN)c2=O)cnc1-c1ccc(-c2nc[nH]n2)cc1` [Example 115, 2-[(2E)-2-(aminomethyl)-3-fluoroprop-2-en-1-yl]-4-{5-methyl-6-[4-(1H-1,2,4-triazol-3-yl)phenyl]pyridin-3-yl}-2,4-dihydro-3H-1,2,4-triazol-3-one], the IC50 in assay [1] was 980 nM; in assay [2], below 100 nM; on recombinant human VAP-1 it was 1.5 nM; in assay [3], above 100000 nM.
For the compound `Cc1cc(-n2cnn(C/C(=C/F)CN)c2=O)cnc1-c1cccc(-c2nc[nH]n2)c1` [Example 116, 2-[(2E)-2-(aminomethyl)-3-fluoroprop-2-en-1-yl]-4-{5-methyl-6-[3-(1H-1,2,4-triazol-3-yl)phenyl]pyridin-3-yl}-2,4-dihydro-3H-1,2,4-triazol-3-one], the concentration for half-maximal inhibition (IC50) in assay [1] was 6020 nM; in assay [2], below 100 nM; on recombinant human VAP-1 it was 0.72 nM; in assay [3] it was above 100000 nM.
On the same counts, the results for `Cc1cc(-n2cnn(C/C(=C/F)CN)c2=O)cnc1-c1ccc2c(c1)OCO2` [Example 117, 2-[(2E)-2-(aminomethyl)-3-fluoroprop-2-en-1-yl]-4-[6-(1,3-benzodioxol-5-yl)-5-methylpyridin-3-yl]-2,4-dihydro-3H-1,2,4-triazol-3-one] are 32 nM, 2.5 nM, 0.21 nM and above 100000 nM.

By IC50 is commonly meant the point on the concentration scale where inhibition reaches its midpoint.
